US20240101570A1 (AMGEN INC., priority 2020, published 2024)

How the values were obtained:
[1] = test system: HCT116 MTAP null cells; experiment: HCT116 MTAP null cell proliferation / viability (CellTiter-Glo, 6 days); type: cell-based; details: HCT116-MTAP null, 144 h, HCT116 MTAP null cells, 6 days, CellTiter-Glo; read-out: HCT-116 MTAP null IC50
In short: (§1)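 CellTiter-Glo luminescence, 6-day exposure, RPMI 1640 + 10% FBS. Dosing: 1:3 series (8-9 pts, top 1 or 10 μM) or 1:2 series (22 pts, top 10 or 50 μM), DMSO control. IC50 = 50% of control via curve fit.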

[2] = test system: HCT116 WT cells; experiment: HCT116 WT cell proliferation / viability (CellTiter-Glo, 6 days); type: cell-based; details: Homo sapiens, HCT-116, 144 h, HCT116 WT cells, 6 days, CellTiter-Glo; read-out: HCT-116 WT IC50
In short: as §1

Compound	IC50 [1]	IC50 [2]
CCN(Cc1ccc(C(F)(F)F)cn1)C(=O)c1cc2c(cc1F)nc(N)c1c2cnn1C [Example 427, 4-amino-N-ethyl-7-fluoro-3-methyl-N-((5-(trifluoromethyl)-2-pyridinyl)methyl)-3H-pyrazolo[3,4-c]quinoline-8-carboxamide]	44 nM	1680 nM
C[C@H](c1ncccn1)N(Cc1ccc(C(F)(F)F)cn1)C(=O)c1cc2c3c(c(N)nc2cc1F)COC3 [Example 435, 4-amino-7-fluoro-N-((1R)-1-(2-pyrimidinyl)ethyl)-N-((5-(trifluoromethyl)-2-pyridinyl)methyl)-1,3-dihydrofuro[3,4-c]quinoline-8-carboxamide]	14 nM	65 nM
C[C@H](c1ncccn1)N(Cc1ccc(C#N)cn1)C(=O)c1cc2c3c(c(N)nc2cc1F)COC3 [Example 436, 4-amino-N-((5-cyano-2-pyridinyl)methyl)-7-fluoro-N-((1R)-1-(2-pyrimidinyl)ethyl)-1,3-dihydrofuro[3,4-c]quinoline-8-carboxamide]	29 nM	187 nM
C[C@H](c1ncccc1F)N(Cc1ccc(Br)nn1)C(=O)c1cc2c3c(c(N)nc2cc1F)COC3 [Example 437, 4-amino-N-((6-bromo-3-pyridazinyl)methyl)-7-fluoro-N-((1R)-1-(3-fluoro-2-pyridinyl)ethyl)-1,3-dihydrofuro[3,4-c]quinoline-8-carboxamide]	31 nM	353 nM
C[C@H](c1ncccn1)N(Cc1ccc(C(F)F)cn1)C(=O)c1ccc2nc(N)c3c(c2c1)COC3 [Example 438, 4-amino-N-((5-(difluoromethyl)-2-pyridinyl)methyl)-N-((1R)-1-(2-pyrimidinyl)ethyl)-1,3-dihydrofuro[3,4-c]quinoline-8-carboxamide]	12 nM	187 nM

The next lines start with the values.

IC50 [1]	IC50 [2]	Compound
101 nM	1250 nM	CCN(Cc1ccc(C(F)(F)F)cn1)C(=O)c1ccc2nc(N)c3ccncc3c2c1 [Example 428, 5-amino-N-ethyl-N-((5-(trifluoromethyl)-2-pyridinyl)methyl)benzo[c][2,6] naphthyridine-9-carboxamide]
1260 nM	31800 nM	CN(Cc1ccc(C2=CCOCC2)cn1)C(=O)c1ccc2nc(N)c3c(c2c1)COC3 [Example 429, 4-amino-N-((5-(3,6-dihydro-2H-pyran-4-yl)-2-pyridinyl)methyl)-N-methyl-1,3-dihydrofuro[3,4-c]quinoline-8-carboxamide]
312 nM	12800 nM	COC(=O)N1CC=C(c2ccc(CN(C)C(=O)c3ccc4nc(N)c5c(c4c3)COC5)nc2)CC1 [Example 430, methyl 6-((((4-amino-1,3-dihydrofuro[3,4-c]quinolin-8-yl)carbonyl)(methyl)amino)methyl)-3′,6′-dihydro[3,4′-bipyridine]-1′(2′H)-carboxylate]
14300 nM	23500 nM	CC(C)N(Cc1ccc(C(F)(F)F)cn1)C(=O)c1ccc2[nH]c(=O)n3nccc3c2c1 [Example 431, 5-oxo-N-(2-propanyl)-N-((5-(trifluoromethyl)-2-pyridinyl)methyl)-5,6-dihydropyrazolo[1,5-c]quinazoline-9-carboxamide]
203 nM	6390 nM	Cc1nn(C)c2c1c(N)nc1ccc(C(=O)N(Cc3ccc(C(F)(F)F)cn3)C(C)C)cc12 [Example 432, 4-amino-1,3-dimethyl-N-(2-propanyl)-N-((5-(trifluoromethyl)-2-pyridinyl)methyl)-1H-pyrazolo[4,3-c]quinoline-8-carboxamide]
584 nM	23900 nM	CC(C)N(Cc1cnc(C(F)(F)F)cn1)C(=O)c1ccc2nc(N)c3c(c2c1)CO[C@@H]3C [Example 434, (3R)-4-amino-3-methyl-N-(2-propanyl)-N-((5-(trifluoromethyl)-2-pyrazinyl)methyl)-1,3-dihydrofuro[3,4-c]quinoline-8-carboxamide]
